Experiments:
rats [1] = assay: Effect on the kaolin edema in rats; type: in vivo, Chbb:THOM-rats; conditions: 100 mg/kg p.o.
Description: According to Hillebrecht [Arzneimittel-Forschung 4, 607 (1954)] an edema was induced in 20 Chbb:THOM-rats (SPF) of both sexes having a body weight of 125-150 gm by subplantar injection of 0.05 ml of a 10% kaolin suspension in the hind paw. 30 minutes before, 100 mg/kg of substance B as aqua dist. solution was orally administered to 10 animals. Ten control animals received only the solvent. The thickness of the paw was measured before the administration of the test compound and 5 hours after administration. The edema-altering effect was expressed in percent of the average degree of swelling of the control animals.

rats [2] = assay: Test for subacute toxicity in the rat; type: in vivo, Chbb:Thom-rats; conditions: 750 mg/kg daily, 5 weeks
Description: The test was carried out on 10 male and 10 female Chbb:Thom-rats. During a period of 5 weeks 750 mg/kg of substance B were administered to the animals daily. […] After the 5 weeks the animals were killed, and the following organs were dissected for histological examination: heart, lungs, liver, spleen, suprarenals, brain, kidney and pancreas.

O=C1NS(=O)(=O)c2cccc(O)c21.[Na]
antiexudative effect (in words) (rats [1]): does not show any antiexudative effect in rats | Average degree of swelling (rats [1]; 5 hours): 239.0 | Inhibition in % (rats [1]; 5 hours): 13.7% | behavior (rats [2]): normal behavior | spontaneous deaths (rats [2]): No spontaneous deaths could be observed | histological examination of organs (rats [2]; heart, lungs, liver, spleen, suprarenals, brain, kidney, pancreas): did not show any pathological findings

Reference: patent US4404230A, “4-Hydroxy-1,2-Benzisothiazol-3(2H)-one-1,1-dioxides and salts thereof” (priority 1980, dated 1983)
